Where a name gives a salt, the structure may show the parent alone.
How the values were obtained:
[1] = test system: DENV-2 16681 strain; assay: DENV-2 antiviral assay (eGFP fluorescence); type: cell-based, Dengue virus; conditions: DENV-2 16681 eGFP, Vero cells, MOI 0.5, 3 days
Description: The antiviral activity of all the compounds of the invention was tested against the DENV-2 16681 strain which was labeled with enhanced green fluorescent protein (eGPF). The culture medium consists of minimal essential medium supplemented with 2% of heat-inactivated fetal calf serum, 0.04% gentamycin (50 mg/mL) and 2 mM of L-glutamine. Vero cells, obtained from ECACC, were suspended in culture medium and 25 μL was added to 384-well plates (2500 cells/well), which already contain the antiviral compounds. Typically, these plates contain a 5-fold serial dilution of 9 dilution steps of the test compound at 200 times the final concentration in 100% DMSO (200 nL). […] Finally, each plate contains wells which are assigned as virus controls (containing cells and virus in the absence of compound), cell controls (containing cells in the absence of virus and compound) and medium controls (containing medium in the absence of cells, virus and compounds). To the wells assigned as medium control, 25 μL of culture medium was added instead of Vero cells. Once the cells were added to the plates, the plates were incubated for 30 minutes at room temperature to allow the cells to distribute evenly within the wells. Next, the plates were incubated in a fully humidified incubator (37° C., 5% CO2) until the next day. Then, DENV-2 strain 16681, labeled with eGFP, was added at a multiplicity of infection (MOI) of 0.5. Therefore, 15 μL of virus suspension was added to all the wells containing test compound and to the wells assigned as virus control. In parallel, 15 μL of culture medium was added to the medium and cell controls. Next, the plates were incubated for 3 days in a fully humidified incubator (37° C., 5% CO2). At the day of the read out, the eGFP fluorescence was measured using an automated fluorescence microscope at 488 nm (blue laser). Using an in-house LIMS system, inhibition dose response curves for each compound were calculated and the half maximal effective concentration (EC50) was determined. Therefore, the percent inhibition (I) for every test concentration is calculated using the following formula: I=100*(ST-SCC)/(SVC-SCC); ST, SCC and SVC are the amount of eGFP signal in the test compound, cell control and virus control wells, respectively. The EC50, represents the concentration of a compound at which the virus replication is inhibited with 50%, as measured by a 50% reduction of the eGFP fluorescent intensity compared to the virus control. The EC50 is calculated using linear interpolation (Table 1).

[2] = test system: DENV-1 strain TC974#666; assay: Tetravalent RT-qPCR assay, serotype 1; type: cell-based; conditions: Dengue virus, DENV1, Vero, 72 h
Description: (§1) The antiviral activity of the compounds of the invention was tested against DENV-1 strain TC974#666 (NCPV), DENV-2 strain 16681, DENV-3 strain H87 (NCPV) and DENV-4 strain H241 (NCPV) in a RT-qPCR assay. Therefore, Vero cells were infected with either DENV-1, or -2, or -3, or -4 in the presence or absence of test compounds. At day 3 post-infection, the cells were lysed and cell lysates were used to prepare cDNA of both a viral target (the 3′UTR of DENV; Table 2) and a cellular reference gene (β-actin, Table 2). Subsequently, a duplex real time PCR was performed on a Lightcycler480 instrument. The generated Cp value is inversely proportional to the amount of RNA expression of these targets. Inhibition of DENV replication by a test compound results in a shift of Cp's for the 3′UTR gene. On the other hand, if a test compound is toxic to the cells, a similar effect on β-actin expression will be observed. The comparative ΔΔCp method is used to calculate EC50, which is based on the relative gene expression of the target gene (3′UTR) normalized with the cellular housekeeping gene (β-actin). In addition, CC50 values are determined based on the Cp values acquired for the housekeeping gene β-actin.
(§2) The culture medium consisted of minimal essential medium supplemented with 2% of heat-inactivated fetal calf serum, 0.04% gentamycin (50 mg/mL) and 2 mM of L-glutamine. Vero cells, obtained from ECACC, were suspended in culture medium and 75 μL/well was added in 96-well plates (10000 cells/well), which already contain the antiviral compounds. […] In addition, each plate contains wells which are assigned as virus controls (containing cells and virus in the absence of compound) and cell controls (containing cells in the absence of virus and compound). Once the cells were added in the plates, the plates were incubated in a fully humidified incubator (37° C., 5% CO2) until the next day. Dengue viruses serotype-1, -2, -3 and -4 were diluted in order to obtain a Cp of ˜22-24 in the assay. Therefore, 25 μL of virus suspension was added to all the wells containing test compound and to the wells assigned as virus control. In parallel, 25 μL of culture medium was added to the cell controls. Next, the plates were incubated for 3 days in a fully humidified incubator (37° C., 5% CO2). After 3 days, the supernatant was removed from the wells and the cells were washed twice with ice-cold PBS (˜100 μL). The cell pellets within the 96-well plates were stored at −80° C. for at least 1 day. Next, RNA was extracted using the Cells-to-CT^Tm lysis kit, according to the manufacturer's guideline (Life Technologies). The cell lysates can be stored at −80° C. or immediately used in the reverse transcription step.
(§3) In preparation of the reverse transcription step, mix A (table 3A) was prepared and 7.57 μL/well was dispensed in a 96-well plate. After addition of 5 μL of the cell lysates, a five minute denaturation step at 75° C. was performed (table 3B). Afterwards, 7.43 μL of mix B was added (table 3C) and the reverse transcription step was initiated (table 3D) to generate cDNA.
(§4) Finally, a RT-qPCR mix was prepared, mix C (table 4A), and 22.02 μL/well was dispensed in 96-well LightCycler qPCR plates to which 3 μL of cDNA was added and the qPCR was performed according to the conditions in table 4B on a LightCycler 480.
(§5) Using the LightCycler software and an in-house LIMS system, dose response curves for each compound were calculated and the half maximal effective concentration (EC50) and the half maximal cytotoxic concentration (CC50) were determined (Tables 5-8).

[3] = test system: DENV-2 strain 16681; assay: Tetravalent RT-qPCR assay, serotype 2; type: cell-based; conditions: Dengue virus, DENV2, 72 h; RT-qPCR serotype 2 16681, Protocol A, Vero cells, day 3
Description: as §1, §2, §3, §4, §5

[4] = test system: DENV-3 strain H87; assay: Tetravalent RT-qPCR assay, serotype 3; type: cell-based; conditions: Dengue virus, DENV3, 72 h; RT-qPCR serotype 3 H87, Protocol A, Vero cells, day 3
Description: as §1, §2, §3, §4, §5

[5] = test system: DENV-4 strain H241; assay: Tetravalent RT-qPCR assay, serotype 4; type: cell-based; conditions: Dengue virus, DENV4, 72 h; RT-qPCR serotype 4 H241, Protocol A, Vero cells, day 3
Description: as §1, §2, §3, §4, §5

[6] = test system: Vero cells; conditions: African green monkey
[7] = in vitro; conditions: African green monkey

SMILES	melting point	EC50 [1]	EC50 [2]	EC50 [3]	EC50 [4]	EC50 [5]	CC50 [6]	CC50 [7]
COc1cc(NC(C(=O)N2CCc3cc(OC)c(C(F)(F)F)cc32)c2ccc(Cl)cc2F)cc(OCCCC(=O)O)c1 (racemic) (as salt: HCl) [Compound 11, 4-(3-((1-(4-chloro-2-fluorophenyl)-2-(5-methoxy-6-(trifluoromethyl)indolin-1-yl)-2-oxoethyl)amino)-5-methoxyphenoxy)butanoic acid]	121 °C							
COc1cc(NC(C(=O)N2CCc3ccc(C(F)(F)F)cc32)c2ccc(Cl)cc2)cc(OCCCC(=O)O)c1 (single isomer, unassigned) [Compound 3B]		0.14 nM	0.18 nM	0.12 nM	1.1 nM	14 nM	13000 nM	
COc1cc(NC(C(=O)N2CCc3ccc(OC(F)(F)F)cc32)c2ccc(Cl)cc2OC)cc(OCCCC(=O)O)c1 (single isomer, unassigned) [Compound 8B]		0.066 nM	0.15 nM	0.062 nM	1 nM	12 nM	14000 nM	
COc1cc(NC(C(=O)N2CCc3cc(OC)c(C(F)(F)F)cc32)c2ccc(Cl)cc2OC)cc(OCCCC(=O)O)c1 (single isomer, unassigned) [Compound 7B]		0.17 nM	0.61 nM	0.28 nM	5.8 nM	25 nM	13000 nM	
COc1cc(NC(C(=O)N2CCc3cc(OC)c(C(F)(F)F)cc32)c2ccc(Cl)cc2F)cc(OCCCC(=O)O)c1 (single isomer, unassigned) [Compound 11B]		0.15 nM	0.67 nM	0.17 nM	5.4 nM	22 nM	12000 nM	
COc1cc(NC(C(=O)N2CCc3ccc(OC(F)(F)F)cc32)c2ccc(F)cc2)cc(OCCCC(=O)O)c1 (single isomer, unassigned) [Compound 2B]		0.24 nM	0.3 nM	0.28 nM	4.6 nM	30 nM	20000 nM	
COc1cc(NC(C(=O)N2CCc3cc(OC)c(C(F)(F)F)cc32)c2ccc(Cl)cc2)cc(OCCCC(=O)O)c1 (single isomer, unassigned) [Compound 5B]		0.18 nM	0.74 nM	0.17 nM	4.6 nM	24 nM	13000 nM	
COc1cc(NC(C(=O)N2CCc3ccc(OC(F)(F)F)cc32)c2ccc(Cl)cc2F)cc(OCCCC(=O)O)c1 (single isomer, unassigned) [Compound 10A]		0.19 nM	0.16 nM	0.2 nM	2.1 nM	10 nM		13000 nM
COc1cc(NC(C(=O)N2CCc3ccc(C(F)(F)F)cc32)c2ccc(F)cc2)cc(OCCCC(=O)O)c1 (single isomer, unassigned) [Compound 1B]		0.84 nM	0.28 nM	0.48 nM	3.4 nM	51 nM	20000 nM	
COc1cc(NC(C(=O)N2CCc3ccc(OC(F)(F)F)cc32)c2ccc(Cl)cc2)cc(OCCCC(=O)O)c1 (single isomer, unassigned) [Compound 4B]		0.12 nM	0.048 nM	0.06 nM	0.66 nM	11 nM	13000 nM	
COc1cc(NC(C(=O)N2CCc3cc(OC)c(OC(F)(F)F)cc32)c2ccc(Cl)cc2)cc(OCCCC(=O)O)c1 (single isomer, unassigned) [Compound 12B]		0.35 nM	0.68 nM	0.22 nM	4.1 nM	28 nM	12000 nM	
COc1cc(NC(C(=O)N2CCc3ccc(C(F)(F)F)cc32)c2ccc(Cl)cc2F)cc(OCCCC(=O)O)c1 (single isomer, unassigned) [Compound 9B]		0.4 nM	0.22 nM	0.3 nM	4.1 nM	31 nM	13000 nM	

Reference: patent US10689340B2, “Substituted indoline derivatives as dengue viral replication inhibitors” (priority 2016, dated 2020)
